Experimental data reported in patent US10227357B2, “Compounds and methods for kinase modulation, and indications therefor” (Plexxikon Inc., priority 2012, dated 2019).

Experiments:
c-kit kinase = target: T1, c-kit kinase (Homo sapiens, UniProt P10721); experiment: c-Kit biochemical assay, AlphaScreen, 10 μM ATP; conditions: c-kit biochemical inhibitory activity; read-out: Biochemical activity (IC50 μM) Kit
T1 construct: The c-kit (or kinase domain thereof) is an active kinase in AlphaScreen; poly-Histidine tag (in-house protein only) (cleaved yes); host or cells: E. coli BL21(DE3)RIL, co-expressed with PTP1B
How it was run: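 His-tagged c-Kit expressed in E. coli with co-expressed PTP1B (dephosphorylated), tag removed; 0.1 ng per reaction with biotinylated-peptide substrate in 50 mM HEPES pH 7.2, 5 mM MgCl2, 5 mM MnCl2, 5% DMSO, 10 μM ATP, 1 h at room temperature. Phosphorylation detected by AlphaScreen (streptavidin donor, PY20 acceptor beads); IC50 from 8-point 1:3 dilution series.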

c-kit mutant D816V = target: T2, c-kit mutant D816V (Homo sapiens, UniProt P10721, D816V/DEL694-753); experiment: c-Kit mutant D816V biochemical assay, AlphaScreen; conditions: c-kit D816V biochemical inhibitory activity; read-out: Biochemical activity (IC50 μM) Kit D816V
T2 construct: residues 551-934, kinase insertion domain residues 694-753 deleted; 6x-histidine (N); made in house; host or cells: E. coli Arctic Express (DE3) RIL (Stratagene)
How it was run: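 Eight-point, threefold compound series incubated 30 min at room temperature with E. coli-produced D816V kinase, 10 μM ATP, Mg2+/Mn2+ HEPES buffer pH 7.2 and 5% DMSO. After EDTA stop, streptavidin and anti-phosphotyrosine (PY20) AlphaScreen beads gave the read-out, and IC50 was fitted from the concentration–signal curve.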

D816V KIT mutation = D816V KIT mutation (Homo sapiens, UniProt P10721, D816V); conditions: Frost et al., 2002; cited from earlier work
Chain of D816V KIT mutation (P10721 26-976 D816V): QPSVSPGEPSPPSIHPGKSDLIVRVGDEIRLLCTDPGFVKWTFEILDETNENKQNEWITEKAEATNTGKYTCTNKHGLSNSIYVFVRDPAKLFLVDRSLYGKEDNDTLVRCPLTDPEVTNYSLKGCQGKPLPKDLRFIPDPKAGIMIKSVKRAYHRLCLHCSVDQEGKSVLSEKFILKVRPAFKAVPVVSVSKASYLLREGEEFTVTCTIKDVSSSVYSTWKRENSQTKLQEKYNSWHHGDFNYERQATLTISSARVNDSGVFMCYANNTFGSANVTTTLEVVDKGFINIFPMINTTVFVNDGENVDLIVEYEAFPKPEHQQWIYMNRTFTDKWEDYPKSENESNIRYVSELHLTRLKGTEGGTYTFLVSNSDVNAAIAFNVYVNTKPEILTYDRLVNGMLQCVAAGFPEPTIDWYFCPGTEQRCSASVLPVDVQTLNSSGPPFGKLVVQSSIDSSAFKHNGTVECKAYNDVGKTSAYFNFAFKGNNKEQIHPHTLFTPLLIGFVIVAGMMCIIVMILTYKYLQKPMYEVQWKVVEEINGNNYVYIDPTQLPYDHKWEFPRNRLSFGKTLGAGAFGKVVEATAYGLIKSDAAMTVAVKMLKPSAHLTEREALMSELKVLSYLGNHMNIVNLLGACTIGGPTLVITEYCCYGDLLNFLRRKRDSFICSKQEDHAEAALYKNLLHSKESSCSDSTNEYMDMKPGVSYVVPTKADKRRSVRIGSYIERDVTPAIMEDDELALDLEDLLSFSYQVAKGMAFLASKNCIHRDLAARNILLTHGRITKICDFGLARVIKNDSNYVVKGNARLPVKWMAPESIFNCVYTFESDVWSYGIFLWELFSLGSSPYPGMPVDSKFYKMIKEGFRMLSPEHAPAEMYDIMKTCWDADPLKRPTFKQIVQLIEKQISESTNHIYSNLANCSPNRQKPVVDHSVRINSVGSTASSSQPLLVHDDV

T1 sequence (P10721 26-976): as the sequence (P10721 26-976 D816V) above, with V791D counted along it
T2 sequence (P10721 with tags, fused parts or gaps DEL694-753/D816V): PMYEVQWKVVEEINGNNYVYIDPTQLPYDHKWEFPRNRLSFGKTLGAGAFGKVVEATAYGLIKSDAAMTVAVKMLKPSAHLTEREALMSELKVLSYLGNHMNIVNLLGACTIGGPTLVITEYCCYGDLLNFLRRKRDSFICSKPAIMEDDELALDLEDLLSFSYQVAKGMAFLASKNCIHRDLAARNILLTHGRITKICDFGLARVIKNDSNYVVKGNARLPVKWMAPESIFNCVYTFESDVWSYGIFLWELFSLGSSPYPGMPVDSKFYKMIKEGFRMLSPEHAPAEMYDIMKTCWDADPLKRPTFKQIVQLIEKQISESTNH

## C[C@H](NC(=O)N1CCN(c2ncnc3[nH]c(-c4ccc(C#N)cc4)cc23)C[C@H]1C)c1ccc(Cl)cc1 [P-0691, (2R)-N-[(1S)-1-(4-chlorophenyl)ethyl]-4-[6-(4-cyanophenyl)-7H-pyrrolo[2,3-d]pyrimidin-4-yl]-2-methyl-piperazine-1-carboxamide]
c-kit kinase
  IC50: 10 to 200 µM
c-kit mutant D816V
  IC50: 0.0001 to 1 µM

## COc1cccc([C@H](C)NC(=O)N2CCN(c3ncnc4[nH]c(-c5ccc(C#N)cc5)cc34)C[C@H]2C)c1 [P-0692, (2R)-4-[6-(4-cyanophenyl)-7H-pyrrolo[2,3-d]pyrimidin-4-yl]-N-[(1S)-1-(3-methoxyphenyl)ethyl]-2-methyl-piperazine-1-carboxamide]
c-kit kinase
  IC50: 1 to 10 µM
c-kit mutant D816V
  IC50: 0.0001 to 1 µM

## C[C@H](NC(=O)N1CCN(c2ncnc3[nH]c(-c4ccc(C#N)cc4)cc23)C[C@H]1C)c1cccc(Cl)c1 [P-0694, (2R)-N-[(1S)-1-(3-chlorophenyl)ethyl]-4-[6-(4-cyanophenyl)-7H-pyrrolo[2,3-d]pyrimidin-4-yl]-2-methyl-piperazine-1-carboxamide]
c-kit kinase
  IC50: 10 to 200 µM
c-kit mutant D816V
  IC50: 0.0001 to 1 µM

## COc1cc(-c2cc3c(N4CCN(C(=O)N[C@@H](C)c5ccc(F)cc5)[C@H](C)C4)ncnc3[nH]2)ccn1 [P-0695, (2R)-N-[(1S)-1-(4-fluorophenyl)ethyl]-4-[6-(2-methoxy-4-pyridyl)-7H-pyrrolo[2,3-d]pyrimidin-4-yl]-2-methyl-piperazine-1-carboxamide]
c-kit kinase
  IC50: 10 to 200 µM
c-kit mutant D816V
  IC50: 0.0001 to 1 µM

## C[C@H](NC(=O)N1CCN(c2ncnc3[nH]c(-c4ccc(C#N)cc4)cc23)CC1)c1cccc(Cl)c1 [P-0697, N-[(1S)-1-(3-chlorophenyl)ethyl]-4-[6-(4-cyanophenyl)-7H-pyrrolo[2,3-d]pyrimidin-4-yl]piperazine-1-carboxamide]
c-kit kinase
  IC50: 1 to 10 µM
c-kit mutant D816V
  IC50: 0.0001 to 1 µM

## C[C@H](NC(=O)N1CCN(c2ncnc3[nH]c(-c4ccc(F)cc4)cc23)CC1(C)C)c1ccc(Cl)cc1 [P-0700, N-[(1S)-1-(4-chlorophenyl)ethyl]-4-[6-(4-fluorophenyl)-7H-pyrrolo[2,3-d]pyrimidin-4-yl]-2,2-dimethyl-piperazine-1-carboxamide]
c-kit kinase
  IC50: 1 to 10 µM
c-kit mutant D816V
  IC50: 0.0001 to 1 µM

## O=C(NCc1cccs1)N1CCN(c2ncnc3cc(-c4ccc(F)cc4)sc23)CC1 [P-0709, 4-[6-(4-fluorophenyl)thieno[3,2-d]pyrimidin-4-yl]-N-(2-thienylmethyl)piperazine-1-carboxamide]
c-kit kinase
  IC50: 10 to 200 µM
c-kit mutant D816V
  IC50: 0.0001 to 1 µM

## COc1cc(-c2cc3c(N4CCN(C(=O)N[C@@H](C)c5ccc(Cl)cc5)C(C)(C)C4)ncnc3[nH]2)ccn1 [P-0710, N-[(1S)-1-(4-chlorophenyl)ethyl]-4-[6-(2-methoxy-4-pyridyl)-7H-pyrrolo[2,3-d]pyrimidin-4-yl]-2,2-dimethyl-piperazine-1-carboxamide]
c-kit kinase
  IC50: 10 to 200 µM
c-kit mutant D816V
  IC50: 0.0001 to 1 µM

## Cc1ccc([C@H](C)NC(=O)N2CCN(c3ncnc4[nH]c(-c5ccc(F)cc5)cc34)C[C@H]2C)cc1 [P-0712, (2R)-4-[6-(4-fluorophenyl)-7H-pyrrolo[2,3-d]pyrimidin-4-yl]-2-methyl-N-[(1S)-1-(p-tolyl)ethyl]piperazine-1-carboxamide]
c-kit kinase
  IC50: 10 to 200 µM
c-kit mutant D816V
  IC50: 0.0001 to 1 µM

## CCOc1cccc(-c2[nH]c(C3CCN(c4ncnc5[nH]c(-c6ccnc(OC)c6)cc45)CC3)nc2C)c1 [P-0714, 4-[4-[5-(3-ethoxyphenyl)-4-methyl-1H-imidazol-2-yl]-1-piperidyl]-6-(2-methoxy-4-pyridyl)-7H-pyrrolo[2,3-d]pyrimidine]
c-kit kinase
  IC50: 10 to 200 µM
c-kit mutant D816V
  IC50: 0.0001 to 1 µM

## Cc1nn(C)cc1-c1cc2c(N3CCN(C(=O)N[C@@H](C)c4ccc(F)cc4)[C@H](C)C3)ncnc2[nH]1 [P-0715, (2R)-4-[6-(1,3-dimethylpyrazol-4-yl)-7H-pyrrolo[2,3-d]pyrimidin-4-yl]-N-[(1S)-1-(4-fluorophenyl)ethyl]-2-methyl-piperazine-1-carboxamide]
c-kit kinase
  IC50: 1 to 10 µM
c-kit mutant D816V
  IC50: 0.0001 to 1 µM

## Cc1nn(C)cc1-c1cc2c(N3CCN(C(=O)N[C@@H](C)c4ccc(Cl)cc4)CC3)ncnc2[nH]1 [P-0716, N-[(1S)-1-(4-chlorophenyl)ethyl]-4-[6-(1,3-dimethylpyrazol-4-yl)-7H-pyrrolo[2,3-d]pyrimidin-4-yl]piperazine-1-carboxamide]
c-kit kinase
  IC50: 10 to 200 µM
c-kit mutant D816V
  IC50: 0.0001 to 1 µM

## C[C@H](NC(=O)N1CCN(c2ncnc3[nH]c(-c4cnn(C)c4)cc23)C[C@H]1C)c1ccc(Cl)cc1 [P-0717, (2R)-N-[(1S)-1-(4-chlorophenyl)ethyl]-2-methyl-4-[6-(1-methylpyrazol-4-yl)-7H-pyrrolo[2,3-d]pyrimidin-4-yl]piperazine-1-carboxamide]
c-kit kinase
  IC50: 1 to 10 µM
c-kit mutant D816V
  IC50: 0.0001 to 1 µM

## Cc1nn(C)cc1-c1cc2c(N3CCN(C(=O)N[C@@H](C)c4ccc(Cl)cc4)[C@H](C)C3)ncnc2[nH]1 [P-0718, (2R)-N-[(1S)-1-(4-chlorophenyl)ethyl]-4-[6-(1,3-dimethylpyrazol-4-yl)-7H-pyrrolo[2,3-d]pyrimidin-4-yl]-2-methyl-piperazine-1-carboxamide]
c-kit kinase
  IC50: 0.0001 to 1 µM
c-kit mutant D816V
  IC50: 0.0001 to 1 µM

## Cc1ccc([C@H](C)NC(=O)N2CCN(c3ncnc4[nH]c(-c5ccc(F)cc5)cc34)CC2(C)C)cc1 [P-0719, 4-[6-(4-fluorophenyl)-7H-pyrrolo[2,3-d]pyrimidin-4-yl]-2,2-dimethyl-N-[(1S)-1-(p-tolyl)ethyl]piperazine-1-carboxamide]
c-kit kinase
  IC50: 0.0001 to 1 µM
c-kit mutant D816V
  IC50: 0.0001 to 1 µM

## C[C@H](NC(=O)N1CCN(c2ncnc3[nH]c(-c4cnn(C)c4)cc23)CC1(C)C)c1ccc(F)cc1 [P-0720, N-[(1S)-1-(4-fluorophenyl)ethyl]-2,2-dimethyl-4-[6-(1-methylpyrazol-4-yl)-7H-pyrrolo[2,3-d]pyrimidin-4-yl]piperazine-1-carboxamide]
c-kit kinase
  IC50: 0.0001 to 1 µM
c-kit mutant D816V
  IC50: 0.0001 to 1 µM

## Cc1nn(C)cc1-c1cc2c(N3CCN(C(=O)N[C@@H](C)c4ccc(F)cc4)C(C)(C)C3)ncnc2[nH]1 [P-0721, 4-[6-(1,3-dimethylpyrazol-4-yl)-7H-pyrrolo[2,3-d]pyrimidin-4-yl]-N-[(1S)-1-(4-fluorophenyl)ethyl]-2,2-dimethyl-piperazine-1-carboxamide]
c-kit kinase
  IC50: 0.0001 to 1 µM
c-kit mutant D816V
  IC50: 0.0001 to 1 µM

## C[C@H](NC(=O)N1CCN(c2ncnc3[nH]c(-c4cnn(C)c4)cc23)CC1(C)C)c1ccc(Cl)cc1 [P-0722, N-[(1S)-1-(4-chlorophenyl)ethyl]-2,2-dimethyl-4-[6-(1-methylpyrazol-4-yl)-7H-pyrrolo[2,3-d]pyrimidin-4-yl]piperazine-1-carboxamide]
c-kit kinase
  IC50: 0.0001 to 1 µM
c-kit mutant D816V
  IC50: 0.0001 to 1 µM

## Cc1nn(C)cc1-c1cc2c(N3CCN(C(=O)N[C@@H](C)c4ccc(Cl)cc4)C(C)(C)C3)ncnc2[nH]1 [P-0723, N-[(1S)-1-(4-chlorophenyl)ethyl]-4-[6-(1,3-dimethylpyrazol-4-yl)-7H-pyrrolo[2,3-d]pyrimidin-4-yl]-2,2-dimethyl-piperazine-1-carboxamide]
c-kit kinase
  IC50: 0.0001 to 1 µM
c-kit mutant D816V
  IC50: 0.0001 to 1 µM

## Cc1nn(C)cc1-c1cc2c(N3CCN(C(=O)N[C@@H](C)c4ccc(F)cc4)CC3)ncnc2[nH]1 [P-0724, 4-[6-(1,3-dimethylpyrazol-4-yl)-7H-pyrrolo[2,3-d]pyrimidin-4-yl]-N-[(1S)-1-(4-fluorophenyl)ethyl]piperazine-1-carboxamide]
c-kit kinase
  IC50: 0.0001 to 1 µM
c-kit mutant D816V
  IC50: 0.0001 to 1 µM

## C[C@H](NC(=O)N1CCN(c2ncnc3[nH]c(-c4cnn(C)c4)cc23)C[C@H]1C)c1ccc(F)cc1 [P-0725, (2R)-N-[(1S)-1-(4-fluorophenyl)ethyl]-2-methyl-4-[6-(1-methylpyrazol-4-yl)-7H-pyrrolo[2,3-d]pyrimidin-4-yl]piperazine-1-carboxamide]
c-kit kinase
  IC50: 0.0001 to 1 µM
c-kit mutant D816V
  IC50: 0.0001 to 1 µM

## CCc1ccc(S(=O)(=O)NC2CCN(c3ncnc4[nH]c(-c5cn(C)nc5C)cc34)CC2)cc1 [P-0726, N-[1-[6-(1,3-dimethylpyrazol-4-yl)-7H-pyrrolo[2,3-d]pyrimidin-4-yl]-4-piperidyl]-4-ethyl-benzenesulfonamide]
c-kit kinase
  IC50: 0.0001 to 1 µM
c-kit mutant D816V
  IC50: 0.0001 to 1 µM

## CCc1ccc(S(=O)(=O)NC2CCN(c3ncnc4[nH]c(-c5ccnc(OC)c5)cc34)CC2)cc1 [P-0727, 4-ethyl-N-[1-[6-(2-methoxy-4-pyridyl)-7H-pyrrolo[2,3-d]pyrimidin-4-yl]-4-piperidyl]benzenesulfonamide]
c-kit kinase
  IC50: 0.0001 to 1 µM
c-kit mutant D816V
  IC50: 0.0001 to 1 µM

## Cc1cc2c(N3CCC(NS(=O)(=O)c4ccc(Cl)cc4)CC3)ncnc2[nH]1 [P-0728, 4-chloro-N-[1-(6-methyl-7H-pyrrolo[2,3-d]pyrimidin-4-yl)-4-piperidyl]benzenesulfonamide]
c-kit kinase
  IC50: 0.0001 to 1 µM
c-kit mutant D816V
  IC50: 0.0001 to 1 µM

## Cc1cc2c(C3=CCC(NS(=O)(=O)c4ccc(Cl)cc4)CC3)ncnc2[nH]1 (centres unmarked) [P-0729, 4-chloro-N-[4-(6-methyl-7H-pyrrolo[2,3-d]pyrimidin-4-yl)cyclohex-3-en-1-yl]benzenesulfonamide]
c-kit kinase
  IC50: 0.0001 to 1 µM
c-kit mutant D816V
  IC50: 0.0001 to 1 µM

## CCc1ccc(S(=O)(=O)NC2CCN(c3ncnc4[nH]c(C)cc34)CC2)s1 [P-0730, 5-ethyl-N-[1-(6-methyl-7H-pyrrolo[2,3-d]pyrimidin-4-yl)-4-piperidyl]thiophene-2-sulfonamide]
c-kit kinase
  IC50: 0.0001 to 1 µM
c-kit mutant D816V
  IC50: 0.0001 to 1 µM

## Cc1ccc(NC(=O)c2ccc(CN3CCN(C)CC3)cc2)cc1Nc1nccc(-c2cccnc2)n1 [imatinib]
D816V KIT mutation
  sensitivity of D816V KIT mutation: resistant
